Consider twelve compounds from patent US12404241B2 (Celgene Corporation, priority 2018, dated 2025).

Where a name gives a salt, the structure may show the parent alone.

The target of this test is T1, AR (Homo sapiens, UniProt P10275).
T1 construct: endogenous in cells; host or cells: VCaP cells
T1 sequence (P10275 1-920): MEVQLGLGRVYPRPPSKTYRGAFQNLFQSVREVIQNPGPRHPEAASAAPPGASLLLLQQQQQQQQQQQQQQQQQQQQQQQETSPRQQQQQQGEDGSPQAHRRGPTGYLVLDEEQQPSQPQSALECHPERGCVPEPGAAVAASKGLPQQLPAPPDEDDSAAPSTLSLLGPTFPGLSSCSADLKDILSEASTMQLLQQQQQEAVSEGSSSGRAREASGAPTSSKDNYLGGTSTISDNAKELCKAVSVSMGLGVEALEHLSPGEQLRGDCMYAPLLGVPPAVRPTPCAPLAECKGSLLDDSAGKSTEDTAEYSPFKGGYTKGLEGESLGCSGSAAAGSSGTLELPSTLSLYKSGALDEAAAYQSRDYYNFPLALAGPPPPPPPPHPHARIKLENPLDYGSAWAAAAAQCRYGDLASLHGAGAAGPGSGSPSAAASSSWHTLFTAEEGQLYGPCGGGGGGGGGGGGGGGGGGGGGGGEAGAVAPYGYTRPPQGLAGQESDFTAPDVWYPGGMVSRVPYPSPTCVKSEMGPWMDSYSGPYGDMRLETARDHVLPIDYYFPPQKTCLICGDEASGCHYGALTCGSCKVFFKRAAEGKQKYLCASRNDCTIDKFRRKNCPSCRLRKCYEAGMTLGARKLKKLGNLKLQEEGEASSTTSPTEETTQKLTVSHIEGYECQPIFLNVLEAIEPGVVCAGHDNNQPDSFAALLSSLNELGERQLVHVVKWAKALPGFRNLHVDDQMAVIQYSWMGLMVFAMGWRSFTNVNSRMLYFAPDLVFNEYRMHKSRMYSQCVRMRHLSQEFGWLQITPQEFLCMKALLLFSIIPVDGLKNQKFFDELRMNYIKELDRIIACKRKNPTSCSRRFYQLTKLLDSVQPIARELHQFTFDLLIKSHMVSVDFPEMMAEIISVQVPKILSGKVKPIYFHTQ
The experiment in a line: VCAP AR Degradation Assay. The class given is cell-based. The note with it: for Y (AR degradation efficiency, % of DMSO control): class symbols *; for DC50: class symbols A-C, read-out: DC50. The essentials: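 24 h, 37 °C, VCaP (DMEM/8% FBS), 10-pt 1:3 dilutions from 5 μM final top, 0.1% DMSO ctrl. Lysis on ice/4 °C 1 h; total AR by sandwich ELISA, normalized to DMSO. 4PL fit → DC50, EC50, Y (min AR level).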

As usually defined, the DC50 is the concentration at which degradation of the target reaches its halfway point. In the case of `C[C@@H]1CN(CCOc2ccc(N3C(=S)N(c4ccc(C#N)c(C(F)(F)F)c4)C(=O)C3(C)C)cc2CC(F)F)CCN1CC(=O)Nc1cc(F)cc(NC2CCC(=O)NC2=O)c1` (stereo partly drawn) [Example 158, 2-((R)-4-(2-(4-(3-(4-cyano-3-(trifluoromethyl)phenyl)-5,5-dimethyl-4-oxo-2-thioxoimidazolidin-1-yl)-2-(2,2-difluoroethyl)phenoxy)ethyl)-2-methylpiperazin-1-yl)-N-(3-(2,6-dioxopiperidin-3-ylamino)-5-fluorophenyl)acetamide], the “Y (AR degradation efficiency, % of DMSO control)” value is recorded as “* (0<Y<=25%)” and the DC50 was less than 0.1 µM.
The corresponding values for `C[C@@H]1CN(CC(=O)Nc2cccc(NC3CCC(=O)NC3=O)c2)[C@H](C)CN1CCOc1ccc(N2C(=S)N(c3ccc(C#N)c(Cl)c3)C(=O)C2(C)C)cc1C1CC1` (stereo partly drawn) [Example 205, 2-((2R,5R)-4-(2-(4-(3-(3-chloro-4-cyanophenyl)-5,5-dimethyl-4-oxo-2-thioxoimidazolidin-1-yl)-2-cyclopropylphenoxy)ethyl)-2,5-dimethylpiperazin-1-yl)-N-(3-(2,6-dioxopiperidin-3-ylamino)phenyl)acetamide] are “* (0<Y<=25%)” and less than 0.1 µM.
In the case of `CCc1cc(N2C(=S)N(c3cnc(C#N)c(C(F)(F)F)c3)C(=O)C2(C)C)ccc1OCCN1C[C@@H](C)N(CC(=O)Nc2cc(Cl)cc(NC3CCC(=O)NC3=O)c2)C[C@H]1C` (stereo partly drawn) [Example 169, N-(3-chloro-5-(2,6-dioxopiperidin-3-ylamino)phenyl)-2-((2R,5R)-4-(2-(4-(3-(6-cyano-5-(trifluoromethyl)pyridin-3-yl)-5,5-dimethyl-4-oxo-2-thioxoimidazolidin-1-yl)-2-ethylphenoxy)ethyl)-2,5-dimethylpiperazin-1-yl)acetamide], the “Y (AR degradation efficiency, % of DMSO control)” value is “* (0<Y<=25%)” and the DC50 was less than 0.1 µM.
The corresponding values for `CC(C)c1cc(N2C(=S)N(c3ccc(C#N)c(C(F)(F)F)c3)C(=O)C2(C)C)ccc1OCCN1C[C@@H](C)N(CC(=O)Nc2cc(Cl)cc(NC3CCC(=O)NC3=O)c2)C[C@H]1C` (stereo partly drawn) [Example 175, N-(3-chloro-5-(2,6-dioxopiperidin-3-ylamino)phenyl)-2-((2R,5R)-4-(2-(4-(3-(4-cyano-3-(trifluoromethyl)phenyl)-5,5-dimethyl-4-oxo-2-thioxoimidazolidin-1-yl)-2-isopropylphenoxy)ethyl)-2,5-dimethylpiperazin-1-yl)acetamide] are “* (0<Y<=25%)” and 0.1 to 0.5 µM.
The corresponding values for `CC1(C)C(=O)N(c2ccc(C#N)c(C(F)(F)F)c2)C(=S)N1c1ccc(OCCN2CC3CCC(C2)N3CC(=O)Nc2cccc(NC3CCC(=O)NC3=O)c2)c(C2CC2)c1` (stereo not drawn) [Example 238, 2-(3-(2-(4-(3-(4-cyano-3-(trifluoromethyl)phenyl)-5,5-dimethyl-4-oxo-2-thioxoimidazolidin-1-yl)-2-cyclopropylphenoxy)ethyl)-3,8-diazabicyclo[3.2.1]octan-8-yl)-N-(3-(2,6-dioxopiperidin-3-ylamino)phenyl)acetamide] are “* (0<Y<=25%)” and 0.5 to 1 µM.
As to `CC1(C)C(=O)N(c2ccc(C#N)c(C(F)(F)F)c2)C(=S)N1c1ccc(OCCN2CCN(CC(=O)Nc3cccc(NC4CCC(=O)NC4=O)c3)CC2)c(Cl)c1` (stereo not drawn) [Example 3, hydrochloride], the “Y (AR degradation efficiency, % of DMSO control)” value is listed as “* (0<Y<=25%)” and the DC50 is less than 0.1 µM.
In the case of `CCc1cc(N2C(=S)N(c3ccc(C#N)c(C(F)(F)F)c3)C(=O)C2(C)C)ccc1OCCN1C[C@@H](C)N(CC(=O)Nc2cc(F)cc(NC3CCC(=O)NC3=O)c2)[C@@H](C)C1` (stereo partly drawn) [Example 283, 2-((2R,6S)-4-(2-(4-(3-(4-cyano-3-(trifluoromethyl)phenyl)-5,5-dimethyl-4-oxo-2-thioxoimidazolidin-1-yl)-2-ethylphenoxy)ethyl)-2,6-dimethylpiperazin-1-yl)-N-(3-(2,6-dioxopiperidin-3-ylamino)-5-fluorophenyl)acetamide], the “Y (AR degradation efficiency, % of DMSO control)” value is given as “* (0<Y<=25%)” and the DC50 is less than 0.1 µM.
As to `CCc1cc(N2C(=S)N(c3ccc(C#N)c(C(F)(F)F)c3)C(=O)C2(C)C)ccc1O[C@@H](C)CN1C[C@@H](C)N(CC(=O)Nc2cccc(NC3CCC(=O)NC3=O)c2)[C@@H](C)C1` (single isomer, unassigned) [Example 242], the “Y (AR degradation efficiency, % of DMSO control)” value is recorded as “*** (35%<Y<50%)” and the DC50 lay in the range of 0.5 to 1 µM.
Consider `CCc1cc(N2C(=S)N(c3cnc(C#N)c(C(F)(F)F)c3)C(=O)C2(C)C)ccc1OCCN1CCN([C@H](C)C(=O)Nc2cc(Cl)cc(NC3CCC(=O)NC3=O)c2)CC1` (stereo partly drawn) [Example 191, (2R)-N-(3-chloro-5-(2,6-dioxopiperidin-3-ylamino)phenyl)-2-(4-(2-(4-(3-(6-cyano-5-(trifluoromethyl)pyridin-3-yl)-5,5-dimethyl-4-oxo-2-thioxoimidazolidin-1-yl)-2-ethylphenoxy)ethyl)piperazin-1-yl)propanamide], for which the “Y (AR degradation efficiency, % of DMSO control)” value is “* (0<Y<=25%)” and the DC50 was less than 0.1 µM.
`CCc1cc(N2C(=S)N(c3ccc(C#N)c(C(F)(F)F)c3)C(=O)C2(C)C)ccc1CCCN1CCN(CC(=O)Nc2cc(F)cc(NC3CCC(=O)NC3=O)c2)CC1` (stereo not drawn) [Example 88, 2-(4-(3-(4-(3-(4-cyano-3-(trifluoromethyl)phenyl)-5,5-dimethyl-4-oxo-2-thioxoimidazolidin-1-yl)-2-ethylphenyl)propyl)piperazin-1-yl)-N-(3-(2,6-dioxopiperidin-3-ylamino)-5-fluorophenyl)acetamide]: the “Y (AR degradation efficiency, % of DMSO control)” value is “* (0<Y<=25%)” and the DC50 was less than 0.1 µM.
The corresponding values for `CC(C)c1cc(N2C(=S)N(c3cnc(C#N)c(C(F)(F)F)c3)C(=O)C23CCC3)ccc1OCCN1C[C@@H](C)N(CC(=O)Nc2cc(NC3CCC(=O)NC3=O)ccc2F)[C@@H](C)C1` (stereo partly drawn) [Example 209, 2-((2S,6R)-4-(2-(4-(7-(6-cyano-5-(trifluoromethyl)pyridin-3-yl)-8-oxo-6-thioxo-5,7-diazaspiro[3.4]octan-5-yl)-2-isopropylphenoxy)ethyl)-2,6-dimethylpiperazin-1-yl)-N-(5-(2,6-dioxopiperidin-3-ylamino)-2-fluorophenyl)acetamide] are “** (25%<Y<=35%)” and 0.1 to 0.5 µM.
Take `C[C@@H]1CN(CCOc2ccc(N3C(=S)N(c4ccc(C#N)c(C(F)(F)F)c4)C(=O)C3(C)C)cc2C2CC2)CCN1CC(=O)Nc1cccc(NC2CCC(=O)NC2=O)c1` (stereo partly drawn) [Example 272, 2-((R)-4-(2-(4-(3-(4-cyano-3-(trifluoromethyl)phenyl)-5,5-dimethyl-4-oxo-2-thioxoimidazolidin-1-yl)-2-cyclopropylphenoxy)ethyl)-2-methylpiperazin-1-yl)-N-(3-(2,6-dioxopiperidin-3-ylamino)phenyl)acetamide]: the “Y (AR degradation efficiency, % of DMSO control)” value is reported as “* (0<Y<=25%)” and the DC50 was less than 0.1 µM.
